# Laboratory results from article PMC5221612 (Journal of the American Chemical Society, 2016).
# Where two headings read alike, the source gives them in different places.
# How the values were obtained:
# GT-3 HCV NS3/4A protease [1] = biological target: GT-3 HCV NS3/4A protease (Hepatitis C virus genotype 3a, UniProt Q81258); test: biochemical
# GT-3 HCV NS3/4A protease [2] = test: biochemical; design: species or system Hepatitis C virus genotype 3a; settings: for fold change (FC) in Ki, GT-3 relative to GT-1: GT-3 Ki / GT-1 Ki; for loss in affinity in GT-3 relative to GT-1: GT-3 vs GT-1
# [3] = tested on: GT-1a NS3/4A protease with D168Q; type: biochemical, Hepatitis C virus genotype 1a; settings: GT-1a D168Q vs GT-1 WT protease
# [4] = tested on: GT-1a NS3/4A protease with R123T/I132L/D168Q (1a3a); test: Enzyme inhibition assay, chimeric 1a3a NS3/4A protease; type: biochemical, Hepatitis C virus; settings: 1a3a chimera vs GT-1 WT
# GT-1 HCV NS3/4A protease = settings: read-out: Ki against GT-1 NS3/4A protease; GT-1a wild type; cited from earlier work
# [5] = tested on: HCV GT-3 subgenomic replicon; settings: viral subgenomic replicon models; range over the named PIs; cited from earlier work
# [6] = biological target: GT-1a NS3/4A protease with D168Q (Hepatitis C virus genotype 1a, UniProt P27958, D1194Q); type: biochemical; settings: GT-1a D168Q
Compound,Ki in GT-3 (in words) (GT-3 HCV NS3/4A protease [1]),"fold change (FC) in Ki, GT-3 relative to GT-1 (GT-3 HCV NS3/4A protease [2]) [fold]","fold change (loss) in potency, D168Q relative to GT-1 WT [3] [fold]","loss in potency, R123T/I132L/D168Q (1a3a) relative to GT-1 WT [4]",Ki (GT-1 HCV NS3/4A protease) [nM],loss in activity against GT-3 compared to GT-1 [5],Ki (GT-3 HCV NS3/4A protease [1]) [nM],loss in affinity in GT-3 relative to GT-1 (GT-3 HCV NS3/4A protease [2]),"Ki (GT-3 HCV NS3/4A protease [1]; read-out: Ki against GT-3 NS3/4A protease, GT-3a) [nM]",inhibition constant against D168Q (in words) [6]
"CC(C)(C)OC(=O)N[C@H]1CCCCC/C=C\[C@@H]2C[C@@]2(C(=O)NS(=O)(=O)C2CC2)NC(=O)[C@@H]2C[C@@H](OC(=O)N3Cc4cccc(F)c4C3)CN2C1=O [DAN, danoprevir]",low to submicromolar,878,30,2–3 orders of magnitude,1,140- to 1500 fold,–,–,–,–
CCC[C@H](NC(=O)[C@@H]1[C@H]2CCC[C@H]2CN1C(=O)[C@@H](NC(=O)[C@@H](NC(=O)c1cnccn1)C1CCCCC1)C(C)(C)C)C(=O)C(=O)NC1CC1 [telaprevir],–,8,1.2,–,33,–,266,–,–,–
C=C[C@@H]1C[C@]1(NC(=O)[C@@H]1C[C@@H]2CN1C(=O)[C@H](C(C)(C)C)NC(=O)O[C@@H]1C[C@H]1CCCCCc1nc3ccc(OC)cc3nc1O2)C(=O)NS(=O)(=O)C1CC1.O [grazoprevir],–,–,–,2–3 orders of magnitude,0.1,140- to 1500 fold,–,2–3 orders of magnitude,–,–
COc1ccc2c(O[C@@H]3C[C@H]4C(=O)N[C@]5(C(=O)NS(=O)(=O)C6CC6)C[C@H]5/C=C\CCCCN(C)C(=O)[C@@H]4C3)cc(-c3nc(C(C)C)cs3)nc2c1C [simeprevir],–,–,–,–,–,140- to 1500 fold,–,–,–,–
COc1ccc2nc3c(nc2c1)O[C@@H]1C[C@H]2C(=O)N[C@]4(C(=O)NS(=O)(=O)C5(C)CC5)C[C@H]4/C=C/CCCCC[C@H](NC(=O)O[C@@H]4CCC[C@H]4CCCCC3)C(=O)N2C1 [MK-6325],–,–,4,2–3 orders of magnitude,0.1,–,–,2–3 orders of magnitude,31,subnanomolar
"CC[C@@H]1C[C@]1(NC(=O)[C@@H]1C[C@@H]2CN1C(=O)[C@H](C(C)(C)C)NC(=O)OCC(C)(C)CCCCc1cccc3c1CN(C3)C(=O)O2)C(=O)NS(=O)(=O)C1CC1 [VAN, vaniprevir]",low to submicromolar,533,44,2–3 orders of magnitude,0.7,–,–,–,–,–
"C=C[C@@H]1C[C@]1(NC(=O)[C@@H]1C[C@@H](Oc2ncc(OC)c3ccc(Cl)cc23)CN1C(=O)[C@@H](NC(=O)OC(C)(C)C)C(C)(C)C)C(=O)NS(=O)(=O)C1CC1 [ASV, asunaprevir]",low to submicromolar,975,72,2–3 orders of magnitude,2.7,–,–,–,–,–
CC[C@@H]1C[C@]1(NC(=O)[C@@H]1C[C@@H](Oc2cc(-c3csc(NC(C)C)n3)nc3c(Cl)c(OCCN4CCOCC4)ccc23)CN1C(=O)[C@@H](NC(=O)O[C@@H]1C[C@@H]2C[C@@H]2C1)C(C)(C)C)C(=O)O [GS-9451],–,–,–,–,–,140- to 1500 fold,–,–,–,–
CC(C)(C)NC(=O)N[C@H](C(=O)N1C[C@H]2[C@@H]([C@H]1C(=O)NC(CC1CCC1)C(=O)C(N)=O)C2(C)C)C(C)(C)C (stereo partly drawn) [boceprevir],–,2.2,0.7,–,33,–,71,–,–,–
